Data on 36 compounds can be found in patent EP4291552B1, “MODULATORS OF COMPLEX I” (Boehringer Ingelheim International GmbH, priority 2021, dated 2022).

For one assay, the target named is Complex I (Bos taurus, UniProt P25708). As to the kind of experiment: Determination of Complex I mediated ROS-inhibition (CI). Particulars: read-out: CI IC50. Format: biochemical, bovine.
On to `CN1[C@@H]2CC[C@H]1CC(Nc1ccc3c(c1)/C(=C1\COCCN1)C(=O)N3C1CCOCC1)C2` (stereo partly shown) [Compound 101], for which the IC50 – broadly, the concentration that inhibits the measured activity by half – came out at 202 nM. Still for that read-out and setting: for `CC(C)N1C(=O)/C(=C2/COCCN2)c2cc(NC3C[C@H]4CC[C@@H](C3)N4C)ccc21` (stereo partly shown) [Compound 123] the value was 916 nM; for `CN1C(=O)/C(=C2/COCCN2)c2cc(NC3CC4CCC(C3)N4C)ccc21` (stereo not shown) [Compound 131], 189 nM.

The assay is the same for the next values; noted with them: read-out: CI IC50; Complex I purified from bovine heart; ROS detected via Amplex Red/horse radish peroxidase; 8 point concentration-response.
On to `CC(C)Nc1ccc2c(c1)/C(=C1\CCOCCN1)C(=O)N2C1CCOCC1` [Compound 30], for which the IC50 was found to be 195 nM.

A further assay deals with mice neuroblastoma cells (HT-22). Briefly: Determination of Cellular Protection (HT22). Particulars: Mus musculus, HT-22, 16 h, read-out: HT22 IC50.
With `CC(C)Nc1ccc2c(c1)/C(=C1\CCOCCN1)C(=O)N2C1CCOCC1` [Compound 30], the IC50 came to 135 nM. For `CN1[C@@H]2CC[C@H]1CC(Nc1ccc3c(c1)/C(=C1\COCCN1)C(=O)N3C1CCOCC1)C2` (stereo partly shown) [Compound 101], the IC50 was found to be 369 nM. Still for that read-out and setting: for `CC(C)N1C(=O)/C(=C2/COCCN2)c2cc(NC3C[C@H]4CC[C@@H](C3)N4C)ccc21` (stereo partly shown) [Compound 123] the value was 17 nM; for `CN1C(=O)/C(=C2/COCCN2)c2cc(NC3CC4CCC(C3)N4C)ccc21` (stereo not shown) [Compound 131], 111 nM; for `CC(Nc1ccc2c(c1)/C(=C1\COCCN1)C(=O)N2C(C)C)c1nccs1` (stereo not shown) [Compound 144], 85 nM. For `CC(C)N1C(=O)/C(=C2/COCCN2)c2cc(NCC(C)(C)C)ccc21` [Compound 145], the half-inhibitory concentration (IC50) was found to be 4 nM. Regarding `CC(Nc1ccc2c(c1)/C(=C1\COCCN1)C(=O)N2C1CCOCC1)c1cnccn1` (stereo not shown) [Compound 146], the IC50 turned out to be 211 nM.

Regarding `CC(Nc1ccc2c(c1)/C(=C1\COCCN1)C(=O)N2C1CCOCC1)c1cncnc1` (stereo not shown) [Compound 147], the half-maximal inhibitory concentration (IC50) stood at 422 nM.

For `CC(Nc1ccc2c(c1)/C(=C1\COCCN1)C(=O)N2C1CCOCC1)C1CCC1` (stereo not shown) [Compound 148], the IC50 stood at 16 nM. In the case of `COC1COCCC1Nc1ccc2c(c1)/C(=C1\COCCN1)C(=O)N2C1CCOCC1` (stereo not shown) [Compound 149], the IC50 was found to be 2940 nM. On the same count and under the same terms, then `CN1CCC(Nc2ccc3c(c2)/C(=C2\COCCN2)C(=O)N3C2CCOCC2)CC1` [Compound 150], with 286 nM.

On to `O=C1/C(=C2/COCCN2)c2cc(NCC3CCOC3)ccc2N1C1CCOCC1` (stereo not shown) [Compound 151], for which the IC50 was found to be 184 nM. In the case of `CN1C(=O)/C(=C2/CCN(C(=O)OCc3ccccc3)CCN2)c2cc(N3CCCC3)ccc21` [Compound 152], the IC50 turned out to be 47 nM.

As for `CN(C)c1ccc2c(c1)/C(=C1\CCCN1)C(=O)N2C1CCN(C(=O)C(F)(F)F)CC1` [Compound 153], the IC50 was found to be 170 nM.

`CN1C(=O)/C(=C2/COCCN2)c2cc(NC3CCC3)ccc21` [Compound 154]: the IC50 is 18 nM.

For the compound `CN1C(=O)/C(=C2/CCN(C3CCOC3)CCN2)c2cc(N3CCCC3)ccc21` (stereo not shown) [Compound 155], the IC50 is 214 nM.

As to `CC1CCC(C)N1c1ccc2c(c1)/C(=C1\COCCN1)C(=O)N2C1CCOCC1` (stereo not shown) [Compound 156], the IC50 came out at 71 nM. On the same count and under the same terms, for `CC(C)N1C(=O)C(=C2CCOCC2)c2cc(N)ccc21` [Compound 157] the value was 1660 nM.

As to `CC(C)N1C(=O)/C(=C2/CCCCN2)c2cc(N3CCOCC3)ccc21` [Compound 158], the IC50 was 2070 nM. The same measure, in the same setting: for `CC(=O)N1CCN/C(=C2\C(=O)N(C(C)C)c3ccc(NC(C)C)cc32)C1` [Compound 159] the value was 80 nM; for `CC(C)N1C(=O)C(=C2CCOCC2)c2cc(NC3CCOC3)ccc21` (stereo not shown) [Compound 160], 471 nM. Still for that read-out and setting: for `CC(C)N1C(=O)/C(=C2/CCCN2C)c2cc(NC3CCC3)ccc21` [Compound 161] the value was 20 nM; for `CC1CCC(C)N1c1ccc2c(c1)/C(=C1\COCCN1)C(=O)N2C1CCOC1` (stereo not shown) [Compound 162], 61 nM; for `CC(C)Nc1ccc2c(c1)/C(=C1\COCCN1)C(=O)N2C1CCOC1` (stereo not shown) [Compound 163], 52 nM. On to `CC(C)Nc1ccc2c(c1)/C(=C1\CCN(C(C)C)CCN1)C(=O)N2C1CCOCC1` [Compound 164], for which the IC50 is 30 nM.

On to `CC(C)Nc1ccc2c(c1)/C(=C1\CC3(CN1)COC3)C(=O)N2C1CCOCC1` [Compound 165], for which the IC50 came out at 253 nM. Still for that read-out and setting: then `CC(C)N1C(=O)/C(=C2/COCCN2)c2cc(N3CCOCC3)ccc21` [Compound 166], with 649 nM. Regarding `CC(C)Nc1ccc2c(c1)/C(=C1\COCCCN1)C(=O)N2C1CCOCC1` [Compound 167], the concentration for half-maximal inhibition (IC50) amounted to 134 nM. `O=C1/C(=C2/COCCN2)c2cc(NC3CCOC3)ccc2N1C1CCOC1` (stereo not shown) [Compound 168]: the IC50 was found to be 439 nM.

As to `O=C(CCO)Nc1ccc2c(c1)/C(=C1\COCCN1)C(=O)N2C1CCOC1` (stereo not shown) [Compound 169], the half-inhibitory concentration (IC50) turned out to be 336 nM. The same measure, in the same setting: then `CC(=O)N1CC[C@H](N2C(=O)/C(=C3/COCCN3)c3cc(NC(C)C)ccc32)C1` [Compound 170], with 159 nM; and `CCC(CC)Nc1ccc2c(c1)/C(=C1\COCCN1)C(=O)N2C(C)C` [Compound 171], with 23 nM. On the same count and under the same terms, for `CC(=O)N1CCC(Nc2ccc3c(c2)/C(=C2\COCCN2)C(=O)N3C(C)C)CC1` [Compound 172] the value was 279 nM; for `CC(C)CNc1ccc2c(c1)/C(=C1\COCCN1)C(=O)N2C(C)C` [Compound 173], 32 nM; for `CC1OCCC1Nc1ccc2c(c1)/C(=C1\COCCN1)C(=O)N2C1CCOCC1` (stereo not shown) [Compound 174], 143 nM.

With `O=C1/C(=C2/COCCN2)c2cc(NC3COC3)ccc2N1C1CCOCC1` [Compound 175], the IC50 amounted to 1190 nM.
